For 13 molecules, IC50 results are on record in patent US20080221086A1, “Novel Inhibitors of Glutaminyl Cyclase” (PROBIODRUG AG, priority 2006, published 2008).

hQC, sequence (Q16769 29-361): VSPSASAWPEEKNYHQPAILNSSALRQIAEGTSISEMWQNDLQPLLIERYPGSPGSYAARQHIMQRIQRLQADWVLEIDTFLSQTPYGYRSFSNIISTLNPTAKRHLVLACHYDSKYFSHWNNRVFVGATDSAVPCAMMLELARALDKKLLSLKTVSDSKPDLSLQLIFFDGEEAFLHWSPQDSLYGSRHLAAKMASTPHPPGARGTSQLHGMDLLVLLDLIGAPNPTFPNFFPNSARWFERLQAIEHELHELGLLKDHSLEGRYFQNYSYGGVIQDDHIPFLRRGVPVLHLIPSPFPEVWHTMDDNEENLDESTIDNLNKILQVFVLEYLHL

For this test, the target named is hQC (Homo sapiens, UniProt Q16769). Briefly: Fluorometric assay of glutaminyl cyclase (QC) inhibition, H-Gln-βNA or H-Gln-AMC substrate. In kind it is biochemical. The note with it: read-out: IC50. The procedure:
All compounds were immediately tested regarding their activity as hQC inhibitors.
The purity of the compounds was determined by HPLC-MS. The IC50 value against hQC was measured using the fluorescent assay.
All measurements were performed with a BioAssay Reader HTS-7000Plus for microplates (Perkin Elmer) at 30° C. QC activity was evaluated fluorometrically using H-Gln-βNA. The samples consisted of 0.2 mM fluorogenic substrate, 0.25 U pyroglutamyl aminopeptidase (Unizyme, Hørsholm, Denmark) in 0.2 M Tris/HCl, pH 8.0 containing 20 mM EDTA and an appropriately diluted aliquot of QC in a final volume of 250 μl. Excitation/emission wavelengths were 320/410 nm. The assay reactions were initiated by addition of glutaminyl cyclase. QC activity was determined from a standard curve of β-naphthylamine under assay conditions. One unit is defined as the amount of QC catalyzing the formation of 1 μmol pGlu-βNA from H-Gln-βNA per minute under the described conditions.
In a second fluorometric assay, QC was activity was determined using H-Gln-AMC as substrate. Reactions were carried out at 30° C. utilizing the NOVOStar reader for microplates (BMG labtechnologies). The samples consisted of varying concentrations of the fluorogenic substrate, 0.1 U pyroglutamyl aminopeptidase (Qiagen) in 0.05 M Tris/HCl, pH 8.0 containing 5 mM EDTA and an appropriately diluted aliquot of QC in a final volume of 250 μl. Excitation/emission wavelengths were 380/460 nm. The assay reactions were initiated by addition of glutaminyl cyclase. QC activity was determined from a standard curve of 7-amino-4-methylcoumarin under assay conditions. The kinetic data were evaluated using GraFit software.
For inhibitor testing, the sample composition was the same as described above, except of the putative inhibitory compound added. For a rapid test of QC-inhibition, samples contained 4 mM of the respective inhibitor and a substrate concentration at 1 KM. For detailed investigations of the inhibition and determination of Ki-values, influence of the inhibitor on the auxiliary enzymes was investigated first. In every case, there was no influence on either enzyme detected, thus enabling the reliable determination of the QC inhibition. The inhibitory constant was evaluated by fitting the set of progress curves to the general equation for competitive inhibition using GraFit software.
Consider `O=C1N/C(=N/CCc2c[nH]c3ccccc23)C(c2cccc(F)c2)N1CCCn1ccnc1` (stereo not shown) [Compound 62, 5-(3-Fluoro-phenyl)-1-(3-imidazol-1-yl-propyl)-4-2-(1H-indol-3-yl)-ethylimino-imidazolidin-2-one], for which the IC50 – broadly, the concentration at which inhibition is half-maximal – was determined as 3.1 µM.
The same measure for `O=C1N/C(=N/CCc2c[nH]c3ccccc23)C(c2ccc(F)cc2)N1CCCn1ccnc1` (stereo not shown) [Compound 63, 5-(4-Fluoro-phenyl)-1-(3-imidazol-1-yl-propyl)-4-2-(1H-indol-3-yl)-ethylimino-imidazolidin-2-one]: 3.1 µM; for `O=C1N/C(=N/CCc2c[nH]c3ccccc23)C(c2ccc(O)cc2)N1CCCn1ccnc1` (stereo not shown) [Compound 64, 5-(4-Hydroxy-phenyl)-1-(3-imidazol-1-yl-propyl)-4-2-(1H-indol-3-yl)-ethylimino-imidazolidin-2-one]: 1.3 µM; for `O=C(C/N=C1/NC(=O)N(CCCn2ccnc2)C1c1ccsc1)N1CCc2ccccc2C1` (stereo not shown) [Compound 65, 4-2-(3,4-Dihydro-1H-isoquinolin-2-yl)-2-oxo-ethylimino-1-(3-imidazol-1-yl-propyl)-5-thiophen-3-yl-imidazolidin-2-one]: 5.8 µM.
The result for `O=C(C/N=C1/NC(=O)N(CCCn2ccnc2)C1c1ccccc1)N1CCc2ccccc2C1` (stereo not shown) [Compound 66, 4-2-(3,4-Dihydro-1H-isoquinolin-2-yl)-2-oxo-ethylimino-1-(3-imidazol-1-yl-propyl)-5-phenyl-imidazolidin-2-one] reads 4 µM; that for `O=C(C/N=C1/NC(=O)N(CCCn2ccnc2)C1C1CCC=CO1)N1CCc2ccccc2C1` (stereo not shown) [Compound 67, 4-2-(3,4-Dihydro-1H-isoquinolin-2-yl)-2-oxo-ethylimino-5-(3,4-dihydro-2H-pyran-2-yl)-1-(3-imidazol-1-yl-propyl)-imidazolidin-2-one], 4.9 µM; that for `O=C(C/N=C1\NC(=O)N(CCCn2ccnc2)C1c1cccc(F)c1F)N1CCc2ccccc2C1` (stereo not shown) [Compound 68, 5-(2,3-Difluoro-phenyl)-4-2-(3,4-dihydro-1H-isoquinolin-2-yl)-2-oxo-ethylimino-1-(3-imidazol-1-yl-propyl)-imidazolidin-2-one], 4 µM.
The result for `O=C(C/N=C1/NC(=O)N(CCCn2ccnc2)C1c1cc(F)cc(F)c1)N1CCc2ccccc2C1` (stereo not shown) [Compound 69, 5-(3,5-Difluoro-phenyl)-4-2-(3,4-dihydro-1H-isoquinolin-2-yl)-2-oxo-ethylimino-1-(3-imidazol-1-yl-propyl)-imidazolidin-2-one] reads 4.9 µM.
Turning to `O=C(C/N=C1/NC(=O)N(CCCn2ccnc2)C1c1ccc(Cl)c(F)c1)N1CCc2ccccc2C1` (stereo not shown) [Compound 70, 5-(4-Chloro-3-fluoro-phenyl)-4-2-(3,4-dihydro-1H-isoquinolin-2-yl)-2-oxo-ethylimino-1-(3-imidazol-1-yl-propyl)-imidazolidin-2-one], the IC50 stood at 3.1 µM.
As for `O=C(C/N=C1\NC(=O)N(CCCn2ccnc2)C1c1ccccc1Cl)N1CCc2ccccc2C1` (stereo not shown) [Compound 71, 5-(2-Chloro-phenyl)-4-2-(3,4-dihydro-1H-isoquinolin-2-yl)-2-oxo-ethylimino-1-(3-imidazol-1-yl-propyl)-imidazolidin-2-one], the IC50 amounted to 4 µM.
The same measure for `O=C(C/N=C1/NC(=O)N(CCCn2ccnc2)C1CO)N1CCc2ccccc2C1` (stereo not shown) [Compound 72, 4-2-(3,4-Dihydro-1H-isoquinolin-2-yl)-2-oxo-ethylimino-5-hydroxymethyl-1-(3-imidazol-1-yl-propyl)-imidazolidin-2-one]: 8.5 µM; for `O=C(C/N=C1/NC(=O)N(CCCn2ccnc2)C1c1ccco1)N1CCc2ccccc2C1` (stereo not shown) [Compound 73, 4-2-(3,4-Dihydro-1H-isoquinolin-2-yl)-2-oxo-ethylimino-5-furan-2-yl-1-(3-imidazol-1-yl-propyl)-imidazolidin-2-one]: 6.7 µM; for `CCCCC1/C(=N\CC(=O)N2CCc3ccccc3C2)NC(=O)N1CCCn1ccnc1` (stereo not shown) [Compound 74, 5-Butyl-4-2-(3,4-dihydro-1H-isoquinolin-2-yl)-2-oxo-ethylimino-1-(3-imidazol-1-yl-propyl)-imidazolidin-2-one]: 7.6 µM.
